The test system of data set [1] is HCV replicon cells Huh 9B. The data set is described as follows: HCV replicon assay (luciferase readout). Type of data set: cell-based. The gist of the method:
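Compounds, made up at twice final strength (final DMSO 1%), were added to subgenomic replicon cells one day after plating. Incubation then ran 72 h at 37 °C, 5% CO2, without G418. Replication was quantified as firefly luciferase luminescence in lysed cells, with cytotoxicity assessed on a duplicate clear plate.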
For orientation: In antiviral work, replicon cells carry a viral genome segment that copies itself.

Data set [2] has as its system HCV replicon cells Huh 9B. Type of data set: cell-based.
[3] abbreviates: Hepatitis C virus, 72 h, concentration reducing replicon level (luciferase activity) by 50% vs untreated cell control, 72 h incubation.
The mark [4] stands for this setting: concentration reducing total cell area by 50% relative to DMSO controls, methylene blue, absorbance 620 nm, 72 h incubation.

Like-named read-outs stand apart in the source and are kept apart here.

In the case of `CCCS(=O)(=O)N1CCN(Cc2ccc(NC(=O)c3ccc(-c4cc(S(=O)(=O)Nc5ccc(N6CCOCC6)cc5)ccc4OC)cc3)cc2)CC1` [Example 248, 2′-Methoxy-5′-(4-morpholin-4-yl-phenylsulfamoyl)-biphenyl-4-carboxylic acid [4-(4-propane-1-sulfonyl-piperazin-1-ylmethyl)-phenyl]-amide], the IC50 in data set [1] (setting [3]) was < 1000 nM. In data set [2] (setting [4]), the TD50 result is “* (* < 50 μM)”.
Regarding `COc1ccc(S(=O)(=O)Nc2ccc(N3CCOCC3)cc2)cc1-c1ccc(C(=O)Nc2ccc(CN3CCN(S(=O)(=O)C(C)C)CC3)cc2)cc1` [Example 246, 2′-Methoxy-5′-(4-morpholin-4-yl-phenylsulfamoyl)-biphenyl-4-carboxylic acid [4-(4-propane-2-sulfonyl-piperazin-1-ylmethyl)-phenyl]-amide], in data set [1] (setting [3]), the IC50 is < 1000 nM. For the same compound, the TD50 result in data set [2] (setting [4]) was “* (* < 50 μM)”.
Take `CCC1(c2ccc(NC(=O)c3ccc(-c4cc(NC(=O)C5CCCCC5)ccc4C)cc3)cc2)CCC(=O)NC1=O` (stereo not drawn) [Example 221, 5′-(Cyclohexanecarbonyl-amino)-2′-methyl-biphenyl-4-carboxylic acid [4-(3-ethyl-2,6-dioxo-piperidin-3-yl)-phenyl]-amide]: the IC50 in data set [1] (setting [3]) is < 1000 nM. For the same compound, the TD50 result in data set [2] (setting [4]) is listed as “* (* < 50 μM)”.
Turning to `Cc1ccc(NC(=O)c2ccc(Br)cc2)cc1-c1ccc(C(=O)Nc2ccc(CN3CCS(=O)(=O)CC3)cc2)cc1` [Example 154, 5′-(4-Bromo-benzoylamino)-2′-methyl-biphenyl-4-carboxylic acid [4-(1,1-dioxo-1lambda*6*-thiomorpholin-4-ylmethyl)-phenyl]-amide], in data set [1] (setting [3]), the IC50 is < 1000 nM. For the same compound, in data set [2] (setting [4]), the TD50 entry is given as “* (* < 50 μM)”.
The like results for `Cc1ccc(NC(=O)c2ccc(F)cc2)cc1-c1ccc(C(=O)Nc2ccc(CN3CCS(=O)(=O)CC3)cc2)cc1` [Example 159, 5′-(4-Fluoro-benzoylamino)-2′-methyl-biphenyl-4-carboxylic acid [4-(1,1-dioxo-1lambda*6*-thiomorpholin-4-ylmethyl)-phenyl]-amide] were, in that order, < 1000 nM and “* (* < 50 μM)”.
In data set [1] (setting [3]), `COc1cccc(NC(=O)c2ccc(-c3cc(NC(=O)c4ccc(N5CCOCC5)cc4)ccc3C)cc2)c1` [Example 91, 2′-Methyl-5′-(4-morpholin-4-yl-benzoylamino)-biphenyl-4-carboxylic acid (3-methoxy-phenyl)-amide] showed an IC50 of 1000 to 5000 nM. In data set [2] (setting [4]), the TD50 result is recorded as “** (** > 50 μM)”.
`Cc1ccc(C(=O)Nc2ccc(N3CCOCC3)cc2)cc1-c1ccc(C(=O)Nc2ccc(Br)cc2)cc1` [Example 7, 6-Methyl-biphenyl-3,4′-dicarboxylic acid 4′-[(4-bromo-phenyl)-amide] 3-[(4-morpholin-4-yl-phenyl)-amide]] displayed an IC50 in data set [1] of 1000 to 5000 nM. For the same compound, the TD50 entry in data set [2] is listed as “* (key: * < 50 μM; ** > 50 μM)”.
`O=C(Nc1ccc(CN2CCS(=O)(=O)CC2)cc1)c1ccc(-c2cccc(NC(=O)C3CC3)c2)cc1` [Example 168, 3′-(Cyclopropanecarbonyl-amino)-biphenyl-4-carboxylic acid [4-(1,1-dioxo-1lambda*6*-thiomorpholin-4-ylmethyl)-phenyl]-amide]: the IC50 in data set [1] (setting [3]) was < 1000 nM. Further, the TD50 entry in data set [2] (setting [4]) is “* (* < 50 μM)”.
Turning to `CCc1nnc(NC(=O)c2ccc(C)c(-c3ccc(C(=O)Nc4ccc(CN5CCS(=O)(=O)CC5)cc4)cc3)c2)s1` [Example 143, 6-Methyl-biphenyl-3,4′-dicarboxylic acid 4′-{[4-(1,1-dioxo-1lambda*6*-thiomorpholin-4-ylmethyl)-phenyl]-amide} 3-[(5-ethyl-[1,3,4]thiadiazol-2-yl)-amide]], the IC50 in data set [1] fell in the range of 1000 to 5000 nM. Also, in data set [2], the TD50 result is listed as “* (key: * < 50 μM; ** > 50 μM)”.
Take `Cc1ccc(NC(=O)c2ccc(N3CCOCC3)cc2)cc1-c1ccc(C(=O)NCc2cccc(Cl)c2)cc1` [Example 94, 2′-Methyl-5′-(4-morpholin-4-yl-benzoylamino)-biphenyl-4-carboxylic acid 3-chloro-benzylamide]: in data set [1] (setting [3]), the IC50 lay within 1000 to 5000 nM. For the same compound, in data set [2] (setting [4]), the TD50 result is on record as “** (** > 50 μM)”.
Turning to `Cc1ccc(C(=O)Nc2ccc(N3CCOCC3)cc2)cc1-c1ccc(C(=O)Nc2cccc(NS(C)(=O)=O)c2)cc1` [Example 78, 6-Methyl-biphenyl-3,4′-dicarboxylic acid 4′-[(3-methanesulfonylamino-phenyl)-amide] 3-[(4-morpholin-4-yl-phenyl)-amide]], the IC50 in data set [1] fell in the range of 1000 to 5000 nM. Also, in data set [2], the TD50 result was “* (key: * < 50 μM; ** > 50 μM)”.
Turning to `Cc1ccc(NC(=O)CCC2CCCCC2)cc1-c1ccc(C(=O)Nc2ccc(CN3CCS(=O)(=O)CC3)cc2)cc1` [Example 163, 5′-(3-Cyclohexyl-propionylamino)-2′-methyl-biphenyl-4-carboxylic acid [4-(1,1-dioxo-1lambda*6*-thiomorpholin-4-ylmethyl)-phenyl]-amide], the IC50 in data set [1] (setting [3]) was < 1000 nM. Moreover, the TD50 entry in data set [2] (setting [4]) is given as “* (* < 50 μM)”.
In data set [1], `Cc1ccc(C(=O)NC2CC2)cc1-c1ccc(C(=O)Nc2ccc(CN3CCS(=O)(=O)CC3)cc2)cc1` [Example 121, 6-Methyl-biphenyl-3,4′-dicarboxylic acid 3-cyclopropylamide 4′-{[4-(1,1-dioxo-1lambda*6*-thiomorpholin-4-ylmethyl)-phenyl]-amide}] gave an IC50 of 1000 to 5000 nM. Further, the TD50 result in data set [2] was “* (key: * < 50 μM; ** > 50 μM)”.
Turning to `COc1cccc(C(=O)Nc2ccc(-c3cc(C(=O)Nc4ccc(N5CCOCC5)cc4)ccc3C)cc2)c1` [Example 107, 4′-(3-Methoxy-benzoylamino)-6-methyl-biphenyl-3-carboxylic acid (4-morpholin-4-yl-phenyl)-amide], the IC50 in data set [1] (setting [3]) was < 1000 nM. Moreover, the TD50 entry in data set [2] (setting [4]) is “** (** > 50 μM)”.
`COc1ccccc1C(=O)Nc1ccc(-c2cccc(C(=O)Nc3ccc(CN4CCS(=O)(=O)CC4)cc3)c2)c(C)c1` [Example 134, 4′-(2-Methoxy-benzoylamino)-2′-methyl-biphenyl-3-carboxylic acid [4-(1,1-dioxo-1lambda*6*-thiomorpholin-4-ylmethyl)-phenyl]-amide] had an IC50 in data set [1] (setting [3]) of 1000 to 5000 nM. In addition, the TD50 entry in data set [2] (setting [4]) is reported as “* (* < 50 μM)”.
Compound `Cc1ccc(C(=O)Nc2ccc(N3CCOCC3)cc2)cc1-c1ccc(C(=O)Nc2ccc(CC#N)cc2)cc1` [Example 39, 6-Methyl-biphenyl-3,4′-dicarboxylic acid 4′-[(4-cyanomethyl-phenyl)-amide] 3-[(4-morpholin-4-yl-phenyl)-amide]] gave an IC50 in data set [1] of 1000 to 5000 nM. In addition, in data set [2], the TD50 entry is “* (key: * < 50 μM; ** > 50 μM)”.
For the compound `Cc1ccc(C(=O)Nc2ccc(N3CCOCC3)cc2)cc1-c1ccc(NC(=O)c2ccc(CN(C)C)cc2)cc1` [Example 117, 4′-(4-Dimethylaminomethyl-benzoylamino)-6-methyl-biphenyl-3-carboxylic acid (4-morpholin-4-yl-phenyl)-amide], the IC50 in data set [1] (setting [3]) was in the range of 1000 to 5000 nM. Besides, the TD50 result in data set [2] (setting [4]) was “* (* < 50 μM)”.
Take `CC(=O)Nc1cc(NC(=O)c2ccc(-c3cc(C(=O)Nc4ccc(N5CCOCC5)cc4)ccc3C)cc2)ccc1C` [Example 77, 6-Methyl-biphenyl-3,4′-dicarboxylic acid 4′-[(3-acetylamino-4-methyl-phenyl)-amide] 3-[(4-morpholin-4-yl-phenyl)-amide]]: the IC50 in data set [1] was in the range of 1000 to 5000 nM. The TD50 entry in data set [2] is recorded as “* (key: * < 50 μM; ** > 50 μM)”.
Consider `Cc1ccc(C(=O)Nc2ccc(N3CCOCC3)cc2)cc1-c1ccc(CNCCc2cnc[nH]2)cc1` [Example 100, 4′-{[2-(3H-Imidazol-4-yl)-ethylamino]-methyl}-6-methyl-biphenyl-3-carboxylic acid (4-morpholin-4-yl-phenyl)-amide], for which the IC50 in data set [1] (setting [3]) was 1000 to 5000 nM. In data set [2] (setting [4]), the TD50 result is given as “** (** > 50 μM)”.
As for `Cc1ccc(NC(=O)C2CC2)cc1-c1ccc(C(=O)NCc2ccc(N3CCN(C)CC3)cc2)cc1` [Example 217, 5′-(Cyclopropanecarbonyl-amino)-2′-methyl-biphenyl-4-carboxylic acid 4-(4-methyl-piperazin-1-yl)-benzylamide], the IC50 in data set [1] (setting [3]) is > 5000 nM. Besides, the TD50 result in data set [2] (setting [4]) is on record as “* (* < 50 μM)”.
Consider `Cc1ccc(NC(=O)c2cncs2)cc1-c1ccc(C(=O)Nc2ccc(CN3CCS(=O)(=O)CC3)cc2)cc1` [Example 179, Thiazole-5-carboxylic acid {4′-[4-(1,1-dioxo-1lambda*6*-thiomorpholin-4-ylmethyl)-phenylcarbamoyl]-6-methyl-biphenyl-3-yl}-amide], for which the IC50 in data set [1] (setting [3]) was < 1000 nM. Also, the TD50 result in data set [2] (setting [4]) is “* (* < 50 μM)”.
For `COc1cccc(C(=O)Nc2ccc(-c3cccc(C(=O)Nc4ccc(N5CCOCC5)cc4)c3)c(C)c2)c1` [Example 116, 4′-(3-Methoxy-benzoylamino)-2′-methyl-biphenyl-3-carboxylic acid (4-morpholin-4-yl-phenyl)-amide] the same measures were 1000 to 5000 nM and “* (* < 50 μM)”.
The like results for `Cc1ccc(NC(=O)CC2CCCC2)cc1-c1ccc(C(=O)Nc2ccc(CN3CCS(=O)(=O)CC3)cc2)cc1` [Example 166, 5′-(2-Cyclopentyl-acetylamino)-2′-methyl-biphenyl-4-carboxylic acid [4-(1,1-dioxo-1lambda*6*-thiomorpholin-4-ylmethyl)-phenyl]-amide] were, in that order, < 1000 nM and “* (* < 50 μM)”.
Compound `Cc1ccc(CNC(=O)c2ccc(-c3cc(C(=O)Nc4ccc(N5CCOCC5)cc4)ccc3C)cc2)o1` [Example 14, 6-Methyl-biphenyl-3,4′-dicarboxylic acid 4′-[(5-methyl-furan-2-ylmethyl)-amide] 3-[(4-morpholin-4-yl-phenyl)-amide]] yielded an IC50 in data set [1] of 1000 to 5000 nM. Moreover, the TD50 entry in data set [2] is listed as “** (key: * < 50 μM; ** > 50 μM)”.

In general, IC50 refers to the concentration needed to halve the response being measured.

The values are drawn from patent US8008303B2, “Biphenyl derivatives and their use in treating hepatitis C” (AstraZeneca AB, priority 2005, dated 2011).
